# Data published in ChEMBL document CHEMBL1139343, “Pharmacophore guided discovery of small-molecule human apurinic/apyrimidinic endonuclease 1 inhibitors” (J Med Chem, 2009).
# Key:
# [1] = target: Human immunodeficiency virus type 1 integrase (Human immunodeficiency virus 1, UniProt Q7ZJM1); test: Inhibition of HIV1 integrase
# [2] = Inhibition of exonuclase 3
# [3] = Inhibition of endonuclease 4
# [4] = Selectivity index, IC50 for human recombinant APE1 over exonuclase 3
# [5] = target: DNA repair nuclease/redox regulator APEX1 (Homo sapiens, UniProt P27695); test: Inhibition of purified human recombinant APE1 expressed in Escherichia coli M15 cells
# Chain of DNA repair nuclease/redox regulator APEX1 (P27695 whole entry): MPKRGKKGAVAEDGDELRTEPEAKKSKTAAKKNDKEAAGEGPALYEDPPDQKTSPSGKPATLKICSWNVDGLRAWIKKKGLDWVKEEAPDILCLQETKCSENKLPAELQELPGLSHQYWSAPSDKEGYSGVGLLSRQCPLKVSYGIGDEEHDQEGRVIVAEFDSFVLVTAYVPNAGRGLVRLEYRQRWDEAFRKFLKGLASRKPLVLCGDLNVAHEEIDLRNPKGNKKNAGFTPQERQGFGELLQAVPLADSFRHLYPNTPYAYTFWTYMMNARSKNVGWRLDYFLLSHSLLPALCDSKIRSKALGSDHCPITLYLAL
# Chain of Human immunodeficiency virus type 1 integrase (Q7ZJM1 whole entry): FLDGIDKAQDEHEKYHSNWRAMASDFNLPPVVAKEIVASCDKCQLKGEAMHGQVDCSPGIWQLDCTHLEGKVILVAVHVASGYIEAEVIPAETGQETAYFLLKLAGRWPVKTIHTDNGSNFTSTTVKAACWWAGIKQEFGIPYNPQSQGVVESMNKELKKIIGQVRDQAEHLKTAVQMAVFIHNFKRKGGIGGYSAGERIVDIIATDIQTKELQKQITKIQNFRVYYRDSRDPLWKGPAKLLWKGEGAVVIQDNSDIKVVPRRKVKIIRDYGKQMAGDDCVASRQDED
IC50 [5] [µM],SMILES,other results
4,O=C(O)CCc1ccc(-c2ccc(Cl)cc2)n1CC(=O)O,IC50 [1]: > 100 µM; IC50 [2]: > 100 µM; IC50 [3]: > 100 µM; Ratio IC50 [4]: > 25
6,O=C(O)CN1C(=O)/C(=C\c2ccc(-c3cccc(C(=O)O)c3)o2)SC1=S,IC50 [1]: > 100 µM; IC50 [2]: 70 µM; IC50 [3]: > 100 µM; Ratio IC50 [4]: 12
4,O=C(O)Cc1cc(S(=O)(=O)c2ccc(Sc3ccc(C(=O)O)cc3)cc2)ccc1C(=O)O,IC50 [1]: > 100 µM; IC50 [2]: 90 µM; IC50 [3]: > 100 µM; Ratio IC50 [4]: 23
6,O=C(O)CCN1C(=O)/C(=C2/C(=O)N(CC(=O)O)c3ccccc32)SC1=S,IC50 [1]: > 100 µM; IC50 [2]: 60 µM; IC50 [3]: > 100 µM; Ratio IC50 [4]: 10
> 100,Cc1ccc(S(=O)(=O)Nc2ccc(NC(=O)CN3CCCCC3)c(Cl)c2)cc1,
> 100,O=C(O)CCC1(CCC(=O)O)CCCCC1=O,
27,O=C(O)c1oc2ccccc2c1CSc1ccccn1,
33,O=C(O)CSc1cccc(C(=O)O)c1,
> 100,CCOC(=O)c1cnc(SC(C)C(=O)O)nc1N (configuration not stated),
> 100,COc1ccccc1C(=O)NCC(C)(C)CNC1=NS(=O)(=O)c2ccccc21,
100,O=S(=O)(O)CC(O)CSc1nc2ccccc2s1 (configuration not stated),
5,Cc1oc(CSCCSCc2cc(C(=O)O)c(C)o2)cc1C(=O)O,
> 100,CCOc1cc(S(=O)(=O)NCc2ccc3c(c2)OCO3)c(OCC)cc1-n1cnnn1,
8,CC(Oc1cc(OC(C)C(=O)O)c2c(c1)oc(=O)c1ccccc12)C(=O)O (configuration not stated),
> 100,Cc1ccc(S(=O)(=O)CCc2nnc(NC(=O)CCc3ccccc3)s2)cc1,
> 100,O=C(CN1C(=O)c2ccccc2S1(=O)=O)Nc1ccc(Cl)c(C(=O)O)c1,
> 100,CCCNS(=O)(=O)c1ccc(OCC(=O)NCC2CCCO2)c(C)c1 (configuration not stated),
> 100,Cc1nc(NC(=O)c2ccco2)sc1C(=O)O,
> 100,O=S(=O)(c1cc(S(=O)(=O)N2CCOCC2)c2n[n+]3c4cc(S(=O)(=O)N5CCOCC5)cc(S(=O)(=O)N5CCOCC5)c4[n-]n3c2c1)N1CCOCC1,
35,Cc1ccccc1NC(=O)c1cccc(NC(=O)CCC(=O)O)c1,

IC50 [5] [µM],SMILES,other results
50,O=C(O)CCC1(CCC(=O)O)c2ccccc2-c2ccccc21,
> 100,O=C(Nc1ccccc1O)c1cc(S(=O)(=O)N2CCCCCC2)ccc1Cl,
8,O=C(c1ccc2c(c1)C(=O)N(c1ccccc1C(=O)O)C2=O)c1ccc2c(c1)C(=O)N(c1ccccc1C(=O)O)C2=O,
> 100,CCOC(=O)C(CCc1nn[nH]n1)(CCc1nn[nH]n1)C(=O)OCC,
27,O=C(Nc1cc(S(=O)(=O)O)cc2cc(S(=O)(=O)O)cc(O)c12)c1ccccc1,
> 100,Cc1cc(S(=O)(=O)NC2CCCC2)ccc1-n1cnnn1,
80,O=C(O)CCn1c(=O)oc2cc(S(=O)(=O)O)ccc21,
> 100,O=S(=O)(O)CCSc1nnc(SCCS(=O)(=O)O)s1,
40,O=C(O)CCS(=O)(=O)CCC(=O)O,
> 100,C=CCN1C(=S)S/C(=C/C=C2\Sc3ccccc3N2CCCS(=O)(=O)O)C1=S,
11,O=C(O)CC1OC(=O)c2cc3c(cc21)C(=O)OC3CC(=O)O (configuration not stated),
> 100,O=C(Nc1ccccc1O)c1cc(S(=O)(=O)N2CCCCC2)ccc1Cl,
6,Cc1cc(CSCc2cc(C(=O)O)c(C)o2)oc1C(=O)O,
> 100,O=[N+]([O-])c1ccccc1-c1nnc(CSc2nnc(-c3ccccc3O)o2)o1,
100,CCN(CC)S(=O)(=O)c1cccc(C(=O)Nc2ccccc2C(=O)O)c1,
> 100,COc1ccc(/C=C/C(=O)O)cc1S(=O)(=O)NCc1cccnc1,
> 100,COc1cc(S(=O)(=O)N(Cc2cccnc2)Cc2ccccc2Cl)ccc1-n1cnnn1,
> 100,CCS(=O)(=O)N1CCCC(c2nc(O)c3nnn(Cc4ccccc4)c3n2)C1 (configuration not stated),
> 100,Cc1ccc(S(=O)(=O)CCc2nnc(NC(=O)CC3CC4CCC3C4)s2)cc1 (configuration not stated),
4,O=C(O)Cn1c(CCCCc2nc3ccccc3n2CC(=O)O)nc2ccccc21,IC50 [1]: > 100 µM; IC50 [2]: 80 µM; IC50 [3]: > 100 µM; Ratio IC50 [4]: 20

IC50 [5] [µM],SMILES,other results
> 100,Nc1ccc(-c2ccc(N)c(S(=O)(=O)O)c2)cc1S(=O)(=O)O,
> 100,COC(=O)C1C(=O)C2=C(CC1C)NC(C)=C(C(=O)OC1CCCC1)C2c1ccccc1C (configuration not stated),
> 100,C=CCSc1nnc(-c2ccc(NS(C)(=O)=O)cc2)n1C,
> 100,O=S(=O)(c1ccc(F)cc1)N1CCCC(c2nc(O)c3nnn(Cc4ccc(F)cc4)c3n2)C1 (configuration not stated),
> 100,CCS(=O)(=O)N1CCN(S(=O)(=O)c2ccc(C(=O)O)cc2)CC1,
6,Cc1oc(C)c(C(=O)O)c1COc1ccccc1C(=O)O,IC50 [1]: > 100 µM; IC50 [2]: 98 µM; IC50 [3]: > 100 µM; Ratio IC50 [4]: 16
50,O=C(O)CNS(=O)(=O)c1ccc2c(c1)C(=O)c1cc(S(=O)(=O)NCC(=O)O)ccc1-2,
> 100,O=[N+]([O-])c1ccccc1-c1nnc(CSc2nc(-c3ccccc3O)n[nH]2)o1,
> 100,CCS(=O)(=O)Nc1cc2c(cc1C)C(S(=O)(=O)CC)C1=C2CCC1 (configuration not stated),
> 100,N#C/C(=C\c1ccc(-c2ccccc2[N+](=O)[O-])o1)S(=O)(=O)c1ccccc1,
100,C=CCN1C(=O)C(Cc2ccccc2)S/C1=N/c1ccc(C(=O)O)cc1 (configuration not stated),
> 100,O=C(O)CNC1CS(=O)(=O)CC1O (configuration not stated),
33,O=C(O)CCn1c(=O)[nH]c(=O)n(CCC(=O)O)c1=O,
> 100,O=C(O)CNC(=O)c1cc(=O)[nH]c(=O)[nH]1,
> 100,O=S(=O)(O)CCCSc1sc2ccccc2[n+]1CCCS(=O)(=O)O,
> 100,COC(=O)C1C(=O)c2c([nH]c(C(=O)OC3CCCCC3)c2C)CC1C (configuration not stated),
15,O=C(O)CCn1c(=S)n(CCC(=O)O)c2ccccc21,
> 100,O=S(=O)(O)c1ccccc1Nc1ccnc(Nc2ccccc2S(=O)(=O)O)n1,
